Experimental data: patent publication US20220106282A1, “TREATMENT FOR BREAST CANCER, INCLUDING TRIPLE-NEGATIVE BREAST CANCER” (priority 2018, published 2022)
Several values for one entry are separate records, joined by “and”; a condition that tells them apart may be missing. Identical values can stand only once. Entries after “also recorded” stand apart in the source; their conditions may differ.

Experiments:
[1] = test system: MDA-MB-231 line of cells of triple-negative breast cancer; assay: Cell growth inhibition, MDA-MB-231; format: cell-based; details: Homo sapiens
[2] = test system: FVB mice transgenic for HER-2/neu; assay: Acute oral toxicity, OECD 423 test; format: in vivo
Experimental: 12 female mice were used in the experiment.
The dosage form for administration was prepared ex tempore.
No deaths were detected either.
Further the observations were made once per day.
The medicament was administered in 2 steps with a break of 3 hours in a volume of 0.1 ml per 10 g of a body weight per step at the concentration of 100 mg/ml, because the suspension in oil is thicker at higher concentrations and precludes the medicament to be administered through a gavage. […] Regardless of the group the width of the palpebral fissure of the animals was almost unchanged during the entire observation period. No pathological discharges from the eyes were detected. The nose was pink, moderately moist without pathological discharges. The fur of all mice was neat and shiny without bald spots. A 3% decrease of the animals body weight was registered on Day 2 and a 4% weight decrease on Day 7 from the initial weight (Table 3).

[3] = test system: human MCF-7 cell culture (breast adenocarcinoma); assay: Proliferation of MCF-7 cells under sulfatase inhibition; format: cell-based; details: concentration of 20 μg/ml
Experimental: The cells were seeded on Carrel vials at 50×10^4 cells per flask. To study the proliferative activity of the cells under conditions of sulfatase inhibition, 24 hours after seeding the culture medium […], and then these tumor cell lines were incubated for various periods of time (24 to 72 hrs). The inhibitor was dissolved in DMSO. […] To exclude the cytotoxic effect of DMSO, a control sample comprising DMSO without sulfatase inhibitor was prepared. To exclude nonspecific detrimental effects of the compounds, normal human skin fibroblasts were used. Then the cells were detached with the versene-trypsin solution (Biolot), plated onto Carrel vials containing a fresh complete culture medium. The cells were counted when untreated control cells reached the maximum cell density per unit of surface area of a culture flask (monolayer), and their number was set as 100%. The proliferative activity of all of the studied cell cultures exposed to sulfatase inhibitors was determined in triplicate.

[4] = Acute oral toxicity, OECD 423 test; format: in vivo; details: female, FVB transgenic for HER-2/neu, mouse, in vivo, po, oral (i.g.), OECD 423
[5] = test system: FVB mice transgenic for HER-2/neu; assay: Acute oral toxicity, OECD 423 test; format: in vivo; remark: listed apart in the source
[6] = test system: uterine body; assay: Hormonal effect: uterine body weight in tumor-bearing mice; format: in vivo, mouse
Experimental: To estimate the hormonal effect of the medicament, the weight of the uterine body without uterine horns was measured (Table 9).

[7] = as above; format: in vivo, mouse

What does the source list for `C[C@H]1Oc2cc(OS(N)(=O)=O)ccc2[C@H]2CC[C@]3(C)C(=O)CCC[C@H]3[C@H]21` [compound of formula (1), 3-O-sulphamoyloxy-7β-methyl-D-homo-6-oxa-8α-estra-1,3,5(10)-trien-17a-one]?
IC50 [1]: 4.8 µM; Body weight, individual mice ([2]; 2000 mg/kg i.g. (title of Table 3), Day 1 (before administration), listed as medicament): 26.0 and 28.4 and 27.7 and 26.2 (2×) and 28.3; Body weight, average ([2]; 2000 mg/kg i.g., Day 1 (before administration)): 27.1 g; Body weight, individual mice ([2]; 2000 mg/kg i.g., Day 2, listed as medicament, in g (unit assumed)): 25.7 and 27.7 and 27.0 and 25.3 and 27.4 and 24.7; Body weight, individual mice ([2]; 2000 mg/kg i.g., Day 7, listed as medicament, in g (unit assumed)): 25.0 and 25.8 and 29.6 and 24.6 and 27.6 and 25.7; Body weight, individual mice ([2]; 2000 mg/kg i.g., Day 14, listed as medicament, in g (unit assumed)): 25.1 and 28.3 and 28.0 and 25.9 and 29.1 and 26.5; Decrease of body weight from the initial weight ([2]; 2000 mg/kg, Day 2): 3%; LD50 ([2]; oral (i.g.), OECD 423, listed as anti-cancer agent): > 5000 mg/kg; Hazard category according to the OECD 423 test ([2]; oral (i.g.), listed as anti-cancer agent): 5th; Hazard category according to the OECD 423 test ([2]; oral (i.g.), listed as medicament): 5th or non-classified and 5th or unclassified; Proliferation of MCF-7 tumor cells [3]: completely blocks the proliferation; LD50 at 14 days [4]: ≥ 5000 mg/kg; Lethal effects (dead/total) ([5]; 300 mg/kg single i.g. dose): 0/6; Body weight, average ([5]; 300 mg/kg single i.g. dose, Day 1 (before administration)): 28.7 g; Body weight, individual mice ([5]; 300 mg/kg single i.g. dose, Day 1 (before administration), listed as medicament): 26.4 and 28.2 and 30.0 and 29.0 (2×) and 29.5; Body weight, average ([5]; 300 mg/kg single i.g. dose, Day 2): 28.8 g; Body weight, individual mice ([5]; 300 mg/kg single i.g. dose, Day 2, listed as medicament, in g (unit assumed)): 26.4 and 28.0 and 30.8 and 29.6 and 28.6 and 29.2; Body weight, average ([5]; 300 mg/kg single i.g. dose, Day 7): 29.6 g; Body weight, individual mice ([5]; 300 mg/kg single i.g. dose, Day 7, listed as medicament, in g (unit assumed)): 27.0 and 28.4 and 30.8 and 31.2 and 30.4 and 29.6; Body weight, average ([5]; 300 mg/kg single i.g. dose, Day 14): 29.6 g; Body weight, individual mice ([5]; 300 mg/kg single i.g. dose, Day 14, listed as medicament, in g (unit assumed)): 27.2 and 28.6 and 30.3 and 31.0 and 30.6 and 29.8; Lethal effects (dead/total) ([5]; 300 mg/kg single i.g. dose, listed as medicament): no animals deaths; Average body weight, % from baseline ([5]; 300 mg/kg, Day 2): (0) %; Average body weight, % from baseline ([5]; 300 mg/kg, Day 7): (3) %; Average body weight, % from baseline ([5]; 300 mg/kg, Day 14): (3) %; Visual signs of intoxication ([5]; 300 mg/kg, entire observation period): None of the animals exhibited visual signs of intoxication; Clinical signs of intoxication ([5]; 2000 mg/kg): No clinical signs of intoxication were observed; Lethal effects (dead/total) ([5]; 2000 mg/kg i.g.): 0/6; Body weight, average ([5]; 2000 mg/kg i.g., Day 2): 26.3 g; Body weight, average ([5]; 2000 mg/kg i.g., Day 7): 25.9 g; Body weight, average ([5]; 2000 mg/kg i.g., Day 14): 27.2 g; Average body weight, % from baseline ([5]; 2000 mg/kg, Day 2): (−3) %; Average body weight, % from baseline ([5]; 2000 mg/kg, Day 7): (−4) %; Decrease of body weight from the initial weight ([5]; 2000 mg/kg, Day 7): 4%; Average body weight, % from baseline ([5]; 2000 mg/kg, Day 14): (0) %; Macroscopic changes of the internal organs at autopsy ([5]; Day 15): no changes of the internal organs were detected; Uterine body weight ([6]; 20 mg/kg, all mice): 48 ± 5 mg; Uterine body weight ([6]; 20 mg/kg, estrous phase D): 49 ± 16 mg; Uterine body weight ([6]; 20 mg/kg, estrous phase E): 47 ± 7 mg; Uterine body weight ([6]; 100 mg/kg, all mice): 50 ± 6 mg; Uterine body weight ([6]; 100 mg/kg, estrous phase D): 26 ± 12 mg; Uterine body weight ([6]; 100 mg/kg, estrous phase E): 56 ± 5 mg; Hormonal (uterotropic) effect on the uterus ([6]; uterine body weight versus control group, listed as medicament): no uterotropic activity; also recorded: did not differ from that of the control group; Body weight ([7]; 20 mg/kg, all mice): 30.2 ± 1.2 g; Body weight ([7]; 20 mg/kg, estrous phase D): 30.3 ± 1.8 g; Body weight ([7]; 20 mg/kg, estrous phase E): 30.1 ± 1.7 g; Body weight ([7]; 100 mg/kg, all mice): 30.3 ± 0.8 g; Body weight ([7]; 100 mg/kg, estrous phase D): 33.1 ± 4.5 g; Body weight ([7]; 100 mg/kg, estrous phase E): 29.6 ± 0.5 g
